{"source": "patent US20240277692A1", "about": "“1,2-DIHYDROQUINOLINE-2-ONES FOR THEIR USE IN THE TREATMENT OF LIMB-GIRDLE MUSCULAR DYSTROPHY” (CONSEJO SUPERIOR DE INVESTIGACIONES CIENTÍFICAS, priority 2021, published 2024)", "key": {"[1]": {"tested_on": "Wnt pathway", "test": "Western blot of Wnt pathway proteins in human myotubes after drug administration", "assay_type": "cell-based", "settings": "for active β-catenin: myotubes", "description": "(§1) To obtain primary myoblasts, muscle biopsies were processed and cultured in monolayer according to the method described by Askanas (Neurology, 1975, 25, 58-67). To isolate the pure population of myoblasts and CD56-negative cells (CD56-), the protocol described previously (Jaka et al., Expert Reviews in Molecular Medicine, 2017, 19, e2) was used, using immunomagnetic separation based on the early presence of the surface marker CD56 (Miltenyi Biotec, 130-050-401).\n(§2) Myoblasts were cultured in proliferation medium (DMEM, M-199, Insulin, Glutamine and penicillin-streptomycin) with 10% FBS and growth factors at 37° C. in 5% CO2 air incubator. When myoblasts reached confluence, the FBS concentration was reduced to 2% and growth factors were removed from the medium, promoting fusion and production of myotubes.\n(§3) VP0.7 was provided by Dr. Ana Martínez (from The Center for Biological Research, CSIC). It was administered at 1.2 μM, whereas LiCl (Sigma-Aldrich, L7026) was used for comparative purposes at a final concentration of 10 mM. VP0.7 and LiCl were administered at the above referred concentrations to myotubes at eight days of differentiation, and VP0.7 also to skin fibroblasts and to CD56-cells. Negative controls, in the case of VP0.7, were performed with DMSO (Fisher Scientific, BP-231). At 48 hours after drug administration, RNA and proteins were extracted.\n(§4) Protein collection from muscle samples and cell cultures, as well as Western blot procedure, were performed as previously described (Jaka et al., Expert Reviews in Molecular Medicine, 2017, 19, e2).\nWe proceeded to analyse the expression of the GSK3β protein, as well as its downstream effect on the Wnt pathway in myotubes from controls and patients after drug administration. […] As a control assay, lithium was administered and an increase in active β-catenin was verified (FIG. 2C)."}, "[2]": {"tested_on": "Akt/mTOR pathway", "test": "Western blot of Akt/mTOR pathway proteins in human myotubes", "assay_type": "cell-based", "description": "as §1, §2, §3, §4\nFurthermore, downstream of the mTOR pathway, the p70S6K and RPS6 proteins were analysed. After administration of VP0.7, the expression of total p70S6K, its phosphorylation (Thr421/Ser424 and Thr389), as well as the levels of phosphorylation of the RPS6 protein (Ser235/Ser236) increased in the patient's sample. In the control, the effect observed after the treatments is very slight (FIG. 3B).\nFor comparative purposes, LiCl was also administered in control and patient's myotubes and the phosphorylation of p70S6K and RPS6 proteins were also tested. The results are depicted in FIG. 4."}, "[3]": {"tested_on": "FRBZ gene, β1D integrin", "settings": "LiCl treatment, cited from earlier work"}, "[4]": {"tested_on": "GSK3", "settings": "low therapeutic dose 0.5 mM, Kurgan et al. 2019; cited from earlier work"}, "[5]": {"tested_on": "GSK3β", "settings": "low dose, Whitley et al. 2020, cited from earlier work"}, "[6]": {"tested_on": "CAPN3, FOS, ANOS1 and ITGB1BP2 genes", "test": "Quantitative real-time PCR of deregulated genes in LGMDR1 myotubes", "assay_type": "cell-based, human", "settings": "VP0.7 1.2 μM, 48 h", "description": "as §3\nRNA extraction from primary myoblast/myotubes was performed with an RNeasy Mini Kit (Qiagen). In the case of the muscle biopsies, which were snap frozen and stored at −80° C. until use, total RNA was obtained using an RNA-Plus Kit (QBiogene).\nThe isolated RNA was reverse-transcribed to first-strand complementary DNA (cDNA) in a final volume of 50 μl using a High Capacity cDNA Reverse Transcription Kit (Applied Biosystems), according to the manufacturer's instructions. The expression levels of CAPN3, FOS, ITGB1BP2, ANOS1 and GAPDH genes in the samples were assessed by real-time quantitative PCR with TaqMan probes (Table Il below) using the ‘CFX384 Real-Time PCR Detection System’ (Bio-Rad).\nOn the other hand, in previous studies we had already described that activating the Wnt pathway through the silencing of the FRZB gene or with treatment with lithium, the expression of some altered genes in the muscle of patients was recovered (Jaka et al., Expert Reviews in Molecular Medicine, 2017, 19, e2; Casas-Fraile et al., Orphanet Journal of Rare Diseases, 2020, 15(1), 119). Thus, their expression was analysed after administering VP0.7."}, "[7]": {"tested_on": "integrin β1D and melusin", "test": "Western blot of costamere structural proteins in human myotubes", "assay_type": "cell-based", "settings": "VP0.7 1.2 μM, 48 h", "description": "as §3, §4\nLikewise, the expression of some of the structural proteins that are part of the costamere, whose expression is altered in LGMDR1 patients, was analysed. After drug administration, an increase in integrin β1D and melusin was also observed (FIG. 2E)."}, "[8]": {"tested_on": "Wnt pathway", "test": "Western blot of Wnt pathway proteins in skin fibroblasts", "assay_type": "cell-based, human", "settings": "VP0.7 1.2 μM, 48 h", "description": "(§5) Skin fibroblasts from healthy controls and from LGMDR1 patients were provided by Dr. Ana Aiastui (Biodonostia Health Research Institute, Cell Culture and Histology Platform). Cells were cultured in Dulbecco's modified Eagle's medium (DMEM, Gibco, 41966-029) supplemented with 10% FBS (Gibco, 10270-106) and 1% penicillin-streptomycin (Gibco, 15140-122) at 37° C. in a 5% CO2 air incubator. Human fibroblasts were cultured at a density of 4×10^4 cells/ml.\nas §3, §4"}, "[9]": {"tested_on": "mTOR pathway", "test": "Western blot of mTOR pathway protein in skin fibroblasts", "assay_type": "cell-based, human", "settings": "VP0.7 1.2 μM, 48 h", "description": "as §5, §3, §4"}, "[10]": {"tested_on": "Wnt pathway", "test": "Western blot of Wnt pathway proteins in CD56- cells", "assay_type": "cell-based, human", "settings": "VP0.7 1.2 μM, 48 h", "source_text": "as §1, §3, §4"}, "[11]": {"tested_on": "mTOR pathway", "test": "Western blot of mTOR pathway proteins in CD56- cells", "assay_type": "cell-based, human", "settings": "VP0.7 1.2 μM, 48 h", "source_text": "as §1, §3, §4"}, "[12]": {"target": "GSK3 (Homo sapiens, UniProt P49841)", "sequence (P49841 whole entry)": "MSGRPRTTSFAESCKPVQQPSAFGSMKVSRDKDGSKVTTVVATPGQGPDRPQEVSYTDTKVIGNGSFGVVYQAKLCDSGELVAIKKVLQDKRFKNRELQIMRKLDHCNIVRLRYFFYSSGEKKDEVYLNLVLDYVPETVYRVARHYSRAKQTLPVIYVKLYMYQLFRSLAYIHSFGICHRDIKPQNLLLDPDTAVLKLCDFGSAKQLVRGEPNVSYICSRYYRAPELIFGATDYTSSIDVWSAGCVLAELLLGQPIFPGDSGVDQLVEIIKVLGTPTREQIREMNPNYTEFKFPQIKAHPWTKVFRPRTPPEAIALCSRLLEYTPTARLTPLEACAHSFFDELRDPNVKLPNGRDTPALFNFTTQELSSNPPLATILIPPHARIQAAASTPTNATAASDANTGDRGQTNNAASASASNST", "settings": "highly selective and allosteric modulator; Luna-Medina 2007, Palomo 2011; cited from earlier work"}, "[13]": {"settings": "LiCl 10 mM, drug administration +, myotubes, control 09-23"}, "[14]": {"settings": "LiCl 10 mM, drug administration +, myotubes, control 13-07"}, "[15]": {"settings": "LiCl 10 mM, drug administration +, myotubes, patient 09-21"}, "[16]": {"settings": "LiCl 10 mM, drug administration +, myotubes, patient 09-24"}, "[17]": {"settings": "LiCl 10 mM, drug administration +, myotubes, patient 09-25"}, "[18]": {"settings": "VP0.7 1.2 μM, 48 h, patient's myotubes"}, "[19]": {"settings": "VP0.7 1.2 μM, 48 h, patient's sample, myotubes"}, "[20]": {"settings": "VP0.7 1.2 μM, myotubes, control 13-05, relative to the same sample without treatment"}, "[21]": {"settings": "VP0.7 1.2 μM, myotubes, patient 09-25, relative to the same sample without treatment"}}}
{"smiles": "[Cl-].[Li+]", "note": "[LiCl, reference compound]", "values": [{"measurement": "active β-catenin", "setting": "[1]; LiCl 10 mM, 48 h, control assay", "result": "increase"}, {"measurement": "proteins involved in the mTOR pathway and their phosphorylation forms", "setting": "[2]; LiCl 10 mM, 48 h, control and patient's myotubes", "result": "did not provide any increase"}, {"measurement": "P-RPS6 (S235-S236)", "setting": "[2]; [13]", "result": 3.8}, {"measurement": "P-p70S6K (T421-S424)", "setting": "[2]; [13]", "result": 0.78}, {"measurement": "P-RPS6 (S235-S236)", "setting": "[2]; [14]", "result": 3}, {"measurement": "P-p70S6K (T421-S424)", "setting": "[2]; [14]", "result": 0.7}, {"measurement": "P-RPS6 (S235-S236)", "setting": "[2]; [15]", "result": 1.5}, {"measurement": "P-p70S6K (T421-S424)", "setting": "[2]; [15]", "result": 0.5}, {"measurement": "P-RPS6 (S235-S236)", "setting": "[2]; [16]", "result": 3}, {"measurement": "P-p70S6K (T421-S424)", "setting": "[2]; [16]", "result": 1.4}, {"measurement": "P-RPS6 (S235-S236)", "setting": "[2]; [17]", "result": 2.5}, {"measurement": "P-p70S6K (T421-S424)", "setting": "[2]; [17]", "result": 0.65}, {"measurement": "expression of the FRBZ gene", "setting": "[3]; Jaka et al. 2017", "result": "lower levels"}, {"measurement": "β1D adult isoform of the integrin", "setting": "[3]; primary myotubes", "result": "higher levels"}, {"measurement": "inhibition of GSK3", "setting": "[4]", "result": "inhibit"}, {"measurement": "myoblast fusion", "setting": "[4]", "result": "augment"}, {"measurement": "inhibition of GSK3β", "setting": "[5]", "result": "effective in inhibiting"}, {"measurement": "fatigue resistance in some muscles", "setting": "[5]; via NFAT activation", "result": "enhances"}]}
{"smiles": "CCCCCCCCCCCC(=O)NNC(=O)c1c(O)c2ccccc2n(CC)c1=O", "note": "[VP0.7, N′-dodecanoyl-1-ethyl-4-hydroxy-2-oxo-1,2-dihydroquinoline-3-carbohydrazide]", "values": [{"measurement": "total β-catenin expression", "setting": "[1]; VP0.7 1.2 μM, 48 h, myotubes day 8 of differentiation, controls and LGMDR1 patients", "result": "increase"}, {"measurement": "active β-catenin", "setting": "[1]; VP0.7 1.2 μM, 48 h, controls and LGMDR1 patients", "result": "increase"}, {"measurement": "inhibition of GSK3β kinase", "setting": "[1]; myotubes after drug administration", "result": "effective inhibition"}, {"measurement": "expression of ANOS1", "setting": "[6]", "result": "increase"}, {"measurement": "expression of CAPN3", "setting": "[6]", "result": "increase"}, {"measurement": "expression of FOS", "setting": "[6]", "result": "increase"}, {"measurement": "expression of ITGB1BP2", "setting": "[6]", "result": "increase"}, {"measurement": "integrin β1D", "setting": "[7]", "result": "increase"}, {"measurement": "melusin", "setting": "[7]", "result": "increase"}, {"measurement": "effect on p70S6K and RPS6 expression/phosphorylation", "setting": "[2]; VP0.7 1.2 μM, 48 h, control myotubes", "result": "very slight"}, {"measurement": "phosphorylation of mTOR (Ser2448)", "setting": "[2]; [18]", "result": "significant increase"}, {"measurement": "phosphorylation of mTOR (Ser2481)", "setting": "[2]; [18]", "result": "significant increase"}, {"measurement": "total mTOR", "setting": "[2]; [18]", "result": "no significant changes"}, {"measurement": "expression of total p70S6K", "setting": "[2]; [19]", "result": "increased"}, {"measurement": "p70S6K phosphorylation (Thr389)", "setting": "[2]; [19]", "result": "increased"}, {"measurement": "p70S6K phosphorylation (Thr421/Ser424)", "setting": "[2]; [19]", "result": "increased"}, {"measurement": "phosphorylation of the RPS6 protein (Ser235/Ser236)", "setting": "[2]; [19]", "result": "increased"}, {"measurement": "P-p70S6K (T421-S424)", "setting": "[2]; VP0.7 1.2 μM, myotubes, control 13-05, protein expression value relative to the same sample without treatment", "result": 1}, {"measurement": "P-RPS6 (S235-S236)", "setting": "[2]; [20]", "result": 1.1}, {"measurement": "P-p70S6K (T389)", "setting": "[2]; [20]", "result": 0.94}, {"measurement": "P-p70S6K (T421-S424)", "setting": "[2]; VP0.7 1.2 μM, myotubes, patient 09-25, protein expression value relative to the same sample without treatment", "result": 1.6}, {"measurement": "P-RPS6 (S235-S236)", "setting": "[2]; [21]", "result": 2.8}, {"measurement": "P-p70S6K (T389)", "setting": "[2]; [21]", "result": 1.6}, {"measurement": "active form of β-catenin", "setting": "[8]", "result": "did not show an increase"}, {"measurement": "phosphorylation of GSK3β(Ser9)", "setting": "[8]", "result": "did not show an increase"}, {"measurement": "β-catenin", "setting": "[8]", "result": "did not show an increase"}, {"measurement": "phosphorylation of RPS6", "setting": "[9]", "result": "very slight increase"}, {"measurement": "active form of β-catenin", "setting": "[10]", "result": "no significant alteration"}, {"measurement": "amount of total β-catenin", "setting": "[10]", "result": "no significant alteration"}, {"measurement": "mTOR", "setting": "[11]", "result": "no differences"}, {"measurement": "phosphorylation of RPS6", "setting": "[11]", "result": "no differences"}, {"measurement": "phosphorylation of p70S6K", "setting": "[11]", "result": "no differences"}, {"measurement": "inhibition of GSK3", "setting": "[12]", "result": "reversibly inhibits"}]}
